Measurements: US11279687B2, “Compounds and compositions for the inhibition of NAMPT” (Valo Health, Inc., priority 2010, dated 2022)
Read-outs that look alike come from different tables or passages of the source.

What was measured:
[1] = target: NAMPT (Homo sapiens (Human), UniProt P43490); assay: NAMPT biochemical inhibition assay (NMN quantified by mass spectrometry); conditions: NAMPT biochemical inhibition; read-out: Biochem IC50
[2] = tested on: A2780 cells; assay: In-vitro cell proliferation assay (SRB), A2780 cells; format: cell-based; conditions: A2780 cells, 72 hours, SRB, read-out: A2780 IC50;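 further: viable cell number read as SRB absorbance, background from media-only wells subtracted, IC50 interpolated from percent inhibition at two bracketing compound concentrations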

Sequence of NAMPT (P43490 whole entry): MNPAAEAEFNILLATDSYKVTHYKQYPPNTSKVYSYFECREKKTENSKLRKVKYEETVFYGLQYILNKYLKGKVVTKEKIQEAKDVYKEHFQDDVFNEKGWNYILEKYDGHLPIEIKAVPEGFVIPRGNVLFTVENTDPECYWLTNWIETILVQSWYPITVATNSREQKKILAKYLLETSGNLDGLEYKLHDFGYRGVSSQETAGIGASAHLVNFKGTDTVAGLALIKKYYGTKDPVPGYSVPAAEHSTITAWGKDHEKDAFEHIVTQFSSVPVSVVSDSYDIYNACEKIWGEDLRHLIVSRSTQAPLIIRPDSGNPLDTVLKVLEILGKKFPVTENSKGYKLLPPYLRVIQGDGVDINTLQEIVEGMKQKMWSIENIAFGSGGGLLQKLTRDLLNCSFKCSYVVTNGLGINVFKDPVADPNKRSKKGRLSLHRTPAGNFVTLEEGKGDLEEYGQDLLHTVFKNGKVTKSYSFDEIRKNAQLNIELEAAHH

Compound	IC50 [1]	IC50 ([2]; Homo sapiens, A2780, 72 h)	IC50 [2]
O=C(NCc1ccc2ncsc2c1)c1ccc(S(=O)(=O)c2cccc(Cl)c2)cc1 [N-(1,3-benzothiazol-6-ylmethyl)-4-[(3-chlorobenzene)sulfonyl]benzamide]	11400 nM	9.71 nM	
O=C(NCc1cccnc1)Nc1ccc(S(=O)(=O)c2cccc(C(=O)NCCO)c2)cc1 [N-(2-hydroxyethyl)-3-[(4-{[(pyridin-3-ylmethyl)carbamoyl]amino[benzene)sulfonyl]benzamide]	7.8 nM		100 to 1000 nM
CC(C)CNC(=O)c1cccc(S(=O)(=O)c2ccc(NC(=O)NCc3cccnc3)cc2)c1 [N-(2-methylpropyl)-3-[(4-{[(pyridin-3-ylmethyl)carbamoyl]amino[benzene)sulfonyl]benzamide]	9.7 nM		100 to 1000 nM
CC(C)NC(=O)c1cccc(S(=O)(=O)c2ccc(NC(=O)NCc3cccnc3)cc2)c1 [N-(propan-2-yl)-3-[(4-{[(pyridin-3-ylmethyl)carbamoyl]amino[benzene)sulfonyl]benzamide]	10 nM		100 to 1000 nM
O=C(NCc1cccnc1)Nc1ccc(S(=O)(=O)c2cccc(C(=O)NC3CCCC3)c2)cc1 [N-cyclopentyl-3-[(4-{[(pyridin-3-ylmethyl)carbamoyl]amino[benzene)sulfonyl]benzamide]	9.6 nM		100 to 1000 nM
O=C(NCc1cccnc1)Nc1ccc(S(=O)(=O)c2cccc(C(=O)NC3CC3)c2)cc1 [N-cyclopropyl-3-[(4-{[(pyridin-3-ylmethyl)carbamoyl]amino[benzene)sulfonyl]benzamide]	6.4 nM		100 to 1000 nM

Continued, in another order:

IC50 [1]	IC50 ([2]; Homo sapiens, A2780, 72 h)	Compound	IC50 [2]
3 nM	37 nM	CC(C)NC(=O)CN1CCN(S(=O)(=O)c2ccc(NC(=O)NCc3cccnc3)cc2)CC1 [N-(propan-2-yl)-2-{4-[(4-{[(pyridin-3-ylmethyl)carbamoyl]amino}benzene)sulfonyl]piperazin-1-yl}acetamide]	
9370 nM	374 nM	O=C(NCCc1cccnc1)c1ccc(S(=O)(=O)c2cccc(OC(F)(F)F)c2)cc1 [N-[2-(pyridin-3-yl)ethyl]-4-{[3-(trifluoromethoxy)benzene]sulfonyl}benzamide]	
20500 nM	1550 nM	O=C(NCCc1cccnc1)c1ccc(S(=O)(=O)Nc2cccc(OC(F)(F)F)c2)cc1 [N-[2-(pyridin-3-yl)ethyl]-4-{[3-(trifluoromethoxy)phenyl]sulfamoyl[benzamide]	
11100 nM	2620 nM	O=C(Nc1nc(-c2cccnc2)cs1)c1ccc(S(=O)(=O)N2CCc3ccccc3C2)cc1 [N-[4-(pyridin-3-yl)-1,3-thiazol-2-yl]-4-(1,2,3,4-tetrahydroisoquinoline-2-sulfonyl)benzamide]	
6.7 nM	100 to 1000 nM	CCNC(=O)c1cccc(S(=O)(=O)c2ccc(NC(=O)NCc3cccnc3)cc2)c1 [N-ethyl-3-[(4-{[(pyridin-3-ylmethyl)carbamoyl]amino[benzene)sulfonyl]benzamide]	
1.3 nM	40.2 nM	CCNC(=O)c1ccc(S(=O)(=O)c2ccc(NC(=O)NCc3cccnc3)cc2)cc1 [N-ethyl-4-[(4-{[(pyridin-3-ylmethyl)carbamoyl]amino[benzene)sulfonyl]benzamide]	
6 nM	79 nM	CCN(C(C)=O)[C@H]1CCN(S(=O)(=O)c2ccc(NC(=O)NCc3cccnc3)cc2)C1 [N-ethyl-N-[(3S)-1-[(4-{[(pyridin-3-ylmethyl)carbamoyl]amino}benzene)sulfonyl]pyrrolidin-3-yl]acetamide]	
1 nM	11 nM	CNC(=O)c1ccccc1NS(=O)(=O)c1ccc(NC(=O)NCc2cccnc2)cc1 [N-methyl-2-[(4-{[(pyridin-3-ylmethyl)carbamoyl]amino}benzene)sulfonamido]benzamide]	
3.8 nM	83.8 nM	CNC(=O)c1ccc(S(=O)(=O)c2ccc(NC(=O)NCc3cccnc3)cc2)cn1 [N-methyl-5-[(4-{[(pyridin-3-ylmethyl)carbamoyl]amino}benzene)sulfonyl]pyridine-2-carboxamide]	
